# Results: publication PMC5281058 (Journal of the American Chemical Society, 2015)
# Like-named read-outs stand apart in the source and are kept apart here.
# What was measured:
# [1] = cited from earlier work
# [2] = target: T1, adenosine deaminase (ADA) (Homo sapiens, UniProt P00813); format: biochemical; conditions: for reaction half-life t1/2 of deamination by ADA: calculated assuming a pseudo-first order reaction, real-time absorption; for deamination rate by ADA (in words): real-time continuous measurements, compared with A to I
# T1 sequence (P00813 1-363): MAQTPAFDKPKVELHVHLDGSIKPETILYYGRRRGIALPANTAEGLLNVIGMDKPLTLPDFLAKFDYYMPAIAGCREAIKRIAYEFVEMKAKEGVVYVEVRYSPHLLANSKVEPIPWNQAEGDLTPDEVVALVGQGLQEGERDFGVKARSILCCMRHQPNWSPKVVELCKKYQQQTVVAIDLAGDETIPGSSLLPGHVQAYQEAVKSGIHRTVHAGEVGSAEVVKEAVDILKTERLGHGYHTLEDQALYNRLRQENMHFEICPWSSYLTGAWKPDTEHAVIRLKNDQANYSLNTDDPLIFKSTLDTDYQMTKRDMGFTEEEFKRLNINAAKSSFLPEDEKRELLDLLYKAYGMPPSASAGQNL
# [3] = target: T1, adenosine deaminase (ADA); conditions: conversion of ^thA to ^thI; ref 4b; cited from earlier work
smiles,measurement,setting,value
O=c1ccn([C@@H]2O[C@H](CO)[C@@H](O)[C@H]2O)c(=O)[nH]1 [uridine],pKa (N3 deprotonation),[1]; values reported for N3 deprotonation in uridine,9.20–9.25
Nc1nc2c(ncn2[C@@H]2O[C@H](CO)[C@@H](O)[C@H]2O)c(=O)[nH]1 [guanosine],pKa (N7),"[1]; reported values for guanosine, first value",3.2–3.3
same,pKa (N1),"[1]; reported values for guanosine, second value",9.2–9.6
Nc1ncnc2c1ncn2[C@@H]1O[C@H](CO)[C@@H](O)[C@H]1O [adenosine],half-life,[2]; adenosine deaminase (ADA) enzyme,57 s
same,pKa (N1),[1]; reported values for adenosine,3.6– 4.2
Nc1ncnc2c([C@@H]3O[C@H](CO)[C@@H](O)[C@H]3O)scc12 [^thA],"enzymatic conversion by ADA, times slower compared to adenosine",[3],approximately 20 times
same,reaction half-life t1/2 of deamination by ADA,[2],818 s
same,deamination rate by ADA (in words),[2],sluggish
Nc1ncnc2c([C@@H]3O[C@H](CO)[C@@H](O)[C@H]3O)snc12 [^tzA],reaction half-life t1/2 of deamination by ADA,[2],39 s
same,deamination rate by ADA (in words),[2],at the same rate as it deaminates A to I
